Data from ChEMBL document CHEMBL4507276 (2021).

Legend:
[1] = molecular target: T1, Calcium/calmodulin-dependent protein kinase type IV (Homo sapiens) (UniProt Q16566); conditions: Compound concentration 1000.0 nM
T1 sequence (whole entry): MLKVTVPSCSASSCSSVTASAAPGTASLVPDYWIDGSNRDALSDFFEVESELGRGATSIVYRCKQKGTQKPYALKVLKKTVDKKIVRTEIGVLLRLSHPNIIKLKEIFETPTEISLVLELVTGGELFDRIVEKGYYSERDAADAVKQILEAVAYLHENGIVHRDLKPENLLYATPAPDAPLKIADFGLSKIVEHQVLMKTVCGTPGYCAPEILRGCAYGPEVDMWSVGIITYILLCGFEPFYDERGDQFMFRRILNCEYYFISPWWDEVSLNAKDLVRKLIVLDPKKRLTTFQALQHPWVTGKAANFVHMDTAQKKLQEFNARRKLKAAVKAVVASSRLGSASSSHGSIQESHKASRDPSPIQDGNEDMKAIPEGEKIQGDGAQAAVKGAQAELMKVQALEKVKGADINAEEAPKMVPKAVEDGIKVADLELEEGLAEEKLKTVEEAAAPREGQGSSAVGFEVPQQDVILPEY

[2] = molecular target: Dual specificity tyrosine-phosphorylation-regulated kinase 1A (Homo sapiens) (UniProt Q13627); conditions: Compound concentration 1000.0 nM
[3] = molecular target: Dual specificity tyrosine-phosphorylation-regulated kinase 2 (Homo sapiens) (UniProt Q92630); conditions: Compound concentration 1000.0 nM
Chain of Dual specificity tyrosine-phosphorylation-regulated kinase 2 (Homo sapiens) (Q92630 whole entry): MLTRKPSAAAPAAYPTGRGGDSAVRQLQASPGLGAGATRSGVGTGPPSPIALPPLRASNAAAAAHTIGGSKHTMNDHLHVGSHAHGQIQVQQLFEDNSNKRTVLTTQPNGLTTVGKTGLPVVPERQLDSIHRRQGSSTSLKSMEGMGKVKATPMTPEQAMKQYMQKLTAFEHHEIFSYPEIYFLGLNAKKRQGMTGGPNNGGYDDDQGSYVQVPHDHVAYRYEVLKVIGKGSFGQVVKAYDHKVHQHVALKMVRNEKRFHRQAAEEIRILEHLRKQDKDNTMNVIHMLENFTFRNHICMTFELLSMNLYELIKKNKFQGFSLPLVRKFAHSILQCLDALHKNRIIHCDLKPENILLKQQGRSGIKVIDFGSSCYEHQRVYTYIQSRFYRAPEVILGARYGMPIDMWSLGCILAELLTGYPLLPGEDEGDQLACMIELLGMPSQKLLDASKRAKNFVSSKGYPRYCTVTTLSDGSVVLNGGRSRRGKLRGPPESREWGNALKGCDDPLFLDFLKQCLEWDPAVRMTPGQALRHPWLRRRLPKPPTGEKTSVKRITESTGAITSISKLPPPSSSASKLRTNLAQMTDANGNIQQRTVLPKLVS

[4] = molecular target: Mitogen-activated protein kinase 3 (Homo sapiens) (UniProt P27361); conditions: Compound concentration 1000.0 nM
Chain of Mitogen-activated protein kinase 3 (Homo sapiens) (P27361 whole entry): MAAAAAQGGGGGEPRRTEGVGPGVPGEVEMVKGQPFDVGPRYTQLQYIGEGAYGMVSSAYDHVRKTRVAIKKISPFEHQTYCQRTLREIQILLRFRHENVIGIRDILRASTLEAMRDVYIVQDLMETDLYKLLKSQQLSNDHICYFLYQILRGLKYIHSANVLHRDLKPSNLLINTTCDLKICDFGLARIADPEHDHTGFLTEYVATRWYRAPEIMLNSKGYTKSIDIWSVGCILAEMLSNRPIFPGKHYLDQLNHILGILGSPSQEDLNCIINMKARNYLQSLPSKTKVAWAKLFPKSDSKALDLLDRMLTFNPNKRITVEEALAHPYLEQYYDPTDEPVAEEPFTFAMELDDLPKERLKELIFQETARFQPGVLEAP

[5] = molecular target: Serine/threonine-protein kinase/endoribonuclease IRE1 (Homo sapiens) (UniProt O75460); conditions: Compound concentration 1000.0 nM
[6] = molecular target: T2, Beta-adrenergic receptor kinase 1 (Homo sapiens) (UniProt P25098); conditions: Compound concentration 1000.0 nM
T2 sequence (whole entry): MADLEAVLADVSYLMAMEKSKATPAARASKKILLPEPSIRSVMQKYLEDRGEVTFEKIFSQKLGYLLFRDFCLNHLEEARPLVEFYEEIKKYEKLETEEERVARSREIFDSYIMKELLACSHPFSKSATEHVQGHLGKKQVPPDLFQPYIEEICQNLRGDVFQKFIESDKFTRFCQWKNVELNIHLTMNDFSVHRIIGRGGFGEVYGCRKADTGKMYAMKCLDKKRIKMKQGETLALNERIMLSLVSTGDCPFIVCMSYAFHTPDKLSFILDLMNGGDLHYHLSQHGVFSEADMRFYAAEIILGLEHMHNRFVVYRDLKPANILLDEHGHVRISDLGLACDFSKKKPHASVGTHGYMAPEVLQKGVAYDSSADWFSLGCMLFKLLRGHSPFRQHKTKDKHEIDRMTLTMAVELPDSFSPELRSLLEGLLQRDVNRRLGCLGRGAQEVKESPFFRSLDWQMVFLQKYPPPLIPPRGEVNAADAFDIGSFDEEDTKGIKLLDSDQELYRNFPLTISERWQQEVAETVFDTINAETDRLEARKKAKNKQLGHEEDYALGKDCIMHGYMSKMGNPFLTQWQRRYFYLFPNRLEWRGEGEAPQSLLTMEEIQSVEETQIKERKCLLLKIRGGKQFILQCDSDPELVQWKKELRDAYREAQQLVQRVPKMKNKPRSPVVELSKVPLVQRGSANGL

[7] = molecular target: T3, Mitogen-activated protein kinase kinase kinase 3 (Homo sapiens) (UniProt Q99759); conditions: Compound concentration 1000.0 nM
T3 sequence (whole entry): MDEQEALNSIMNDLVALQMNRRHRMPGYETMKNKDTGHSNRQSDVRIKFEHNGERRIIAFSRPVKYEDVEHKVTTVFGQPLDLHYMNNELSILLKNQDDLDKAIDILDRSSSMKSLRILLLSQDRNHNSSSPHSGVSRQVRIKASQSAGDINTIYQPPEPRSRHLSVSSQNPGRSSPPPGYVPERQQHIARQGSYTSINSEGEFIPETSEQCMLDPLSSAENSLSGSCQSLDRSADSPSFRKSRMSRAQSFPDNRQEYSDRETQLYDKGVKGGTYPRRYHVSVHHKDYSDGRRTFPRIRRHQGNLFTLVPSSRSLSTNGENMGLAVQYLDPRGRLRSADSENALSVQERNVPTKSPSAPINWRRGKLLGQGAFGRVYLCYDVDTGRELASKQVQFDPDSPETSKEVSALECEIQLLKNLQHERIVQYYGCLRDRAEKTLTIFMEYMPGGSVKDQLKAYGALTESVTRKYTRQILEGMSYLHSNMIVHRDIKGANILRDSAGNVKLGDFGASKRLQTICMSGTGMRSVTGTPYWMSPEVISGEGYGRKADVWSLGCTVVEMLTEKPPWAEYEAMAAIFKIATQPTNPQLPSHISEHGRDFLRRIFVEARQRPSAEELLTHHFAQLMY

[8] = molecular target: MAP/microtubule affinity-regulating kinase 3 (Homo sapiens) (UniProt P27448); conditions: Compound concentration 1000.0 nM
Chain of MAP/microtubule affinity-regulating kinase 3 (Homo sapiens) (P27448 whole entry, looked up): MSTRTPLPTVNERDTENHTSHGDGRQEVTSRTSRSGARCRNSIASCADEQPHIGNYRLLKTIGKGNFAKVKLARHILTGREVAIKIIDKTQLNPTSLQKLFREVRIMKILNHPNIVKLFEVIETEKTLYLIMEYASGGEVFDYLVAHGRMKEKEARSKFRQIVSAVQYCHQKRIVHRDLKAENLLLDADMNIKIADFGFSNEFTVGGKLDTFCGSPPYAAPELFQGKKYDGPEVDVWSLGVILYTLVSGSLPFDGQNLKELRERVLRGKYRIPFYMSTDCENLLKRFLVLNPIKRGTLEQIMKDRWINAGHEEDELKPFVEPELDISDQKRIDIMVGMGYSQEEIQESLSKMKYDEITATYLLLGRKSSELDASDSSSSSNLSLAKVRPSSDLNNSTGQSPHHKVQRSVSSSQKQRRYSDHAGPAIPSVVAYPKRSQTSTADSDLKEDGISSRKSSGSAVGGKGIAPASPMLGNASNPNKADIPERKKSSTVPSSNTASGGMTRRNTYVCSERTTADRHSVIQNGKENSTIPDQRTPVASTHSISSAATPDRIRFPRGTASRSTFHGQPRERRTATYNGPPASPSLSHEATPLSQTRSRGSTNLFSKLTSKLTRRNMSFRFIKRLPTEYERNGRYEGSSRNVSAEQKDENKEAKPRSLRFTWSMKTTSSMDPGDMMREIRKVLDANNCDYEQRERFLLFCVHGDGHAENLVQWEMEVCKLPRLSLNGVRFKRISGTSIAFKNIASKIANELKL

[9] = molecular target: Cyclin-dependent kinase 17 (Homo sapiens) (UniProt Q00537); conditions: Compound concentration 1000.0 nM
Chain of Cyclin-dependent kinase 17 (Homo sapiens) (Q00537 whole entry, looked up): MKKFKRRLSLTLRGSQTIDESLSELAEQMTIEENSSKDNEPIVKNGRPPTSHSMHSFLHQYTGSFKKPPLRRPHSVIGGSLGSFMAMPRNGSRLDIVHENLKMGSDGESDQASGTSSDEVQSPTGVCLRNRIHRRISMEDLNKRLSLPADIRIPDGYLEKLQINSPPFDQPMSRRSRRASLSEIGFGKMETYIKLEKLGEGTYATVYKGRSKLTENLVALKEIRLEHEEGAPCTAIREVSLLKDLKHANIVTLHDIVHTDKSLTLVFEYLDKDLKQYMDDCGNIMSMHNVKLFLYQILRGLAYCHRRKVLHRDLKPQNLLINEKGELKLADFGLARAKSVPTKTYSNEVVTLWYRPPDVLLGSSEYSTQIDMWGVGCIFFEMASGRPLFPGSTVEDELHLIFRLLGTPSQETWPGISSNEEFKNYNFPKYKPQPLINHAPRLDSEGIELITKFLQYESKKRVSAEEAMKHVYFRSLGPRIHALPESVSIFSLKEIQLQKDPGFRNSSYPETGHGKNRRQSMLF

[10] = molecular target: Uncharacterized serine/threonine-protein kinase SBK3 (Homo sapiens) (UniProt P0C264); conditions: Compound concentration 1000.0 nM
Chain of Uncharacterized serine/threonine-protein kinase SBK3 (Homo sapiens) (P0C264 whole entry): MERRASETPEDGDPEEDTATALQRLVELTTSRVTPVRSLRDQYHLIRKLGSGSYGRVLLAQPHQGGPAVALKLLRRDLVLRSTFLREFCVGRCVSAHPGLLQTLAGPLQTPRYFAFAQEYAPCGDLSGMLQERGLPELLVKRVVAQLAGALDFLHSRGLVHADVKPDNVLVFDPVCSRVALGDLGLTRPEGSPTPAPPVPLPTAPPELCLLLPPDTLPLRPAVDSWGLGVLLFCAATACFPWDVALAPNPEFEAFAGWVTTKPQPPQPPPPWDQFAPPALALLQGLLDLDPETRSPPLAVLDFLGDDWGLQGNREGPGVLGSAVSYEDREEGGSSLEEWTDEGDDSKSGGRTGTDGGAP

[11] = molecular target: Non-receptor tyrosine-protein kinase TNK1 (Homo sapiens) (UniProt Q13470); conditions: Compound concentration 1000.0 nM
Chain of Non-receptor tyrosine-protein kinase TNK1 (Homo sapiens) (Q13470 whole entry): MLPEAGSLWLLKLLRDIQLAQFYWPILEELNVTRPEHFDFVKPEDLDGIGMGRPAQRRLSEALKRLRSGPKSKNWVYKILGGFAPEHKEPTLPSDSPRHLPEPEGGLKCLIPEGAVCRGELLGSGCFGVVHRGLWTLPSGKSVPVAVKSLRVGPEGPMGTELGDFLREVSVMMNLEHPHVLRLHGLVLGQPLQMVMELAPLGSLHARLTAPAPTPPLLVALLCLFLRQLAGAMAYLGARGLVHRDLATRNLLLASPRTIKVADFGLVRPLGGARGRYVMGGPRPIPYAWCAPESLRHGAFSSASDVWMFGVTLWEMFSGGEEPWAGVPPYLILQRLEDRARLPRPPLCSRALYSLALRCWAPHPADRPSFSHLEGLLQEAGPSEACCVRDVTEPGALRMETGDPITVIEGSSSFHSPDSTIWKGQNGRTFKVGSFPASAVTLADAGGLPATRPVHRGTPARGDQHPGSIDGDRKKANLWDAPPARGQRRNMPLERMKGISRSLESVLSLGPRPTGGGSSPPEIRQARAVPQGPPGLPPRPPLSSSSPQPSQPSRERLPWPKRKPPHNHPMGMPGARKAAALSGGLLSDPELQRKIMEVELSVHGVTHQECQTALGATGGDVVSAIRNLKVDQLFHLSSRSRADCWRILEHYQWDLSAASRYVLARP

[12] = molecular target: Vascular endothelial growth factor receptor 2 (Homo sapiens) (UniProt P35968); conditions: Compound concentration 1000.0 nM
Chain of Vascular endothelial growth factor receptor 2 (Homo sapiens) (P35968 whole entry): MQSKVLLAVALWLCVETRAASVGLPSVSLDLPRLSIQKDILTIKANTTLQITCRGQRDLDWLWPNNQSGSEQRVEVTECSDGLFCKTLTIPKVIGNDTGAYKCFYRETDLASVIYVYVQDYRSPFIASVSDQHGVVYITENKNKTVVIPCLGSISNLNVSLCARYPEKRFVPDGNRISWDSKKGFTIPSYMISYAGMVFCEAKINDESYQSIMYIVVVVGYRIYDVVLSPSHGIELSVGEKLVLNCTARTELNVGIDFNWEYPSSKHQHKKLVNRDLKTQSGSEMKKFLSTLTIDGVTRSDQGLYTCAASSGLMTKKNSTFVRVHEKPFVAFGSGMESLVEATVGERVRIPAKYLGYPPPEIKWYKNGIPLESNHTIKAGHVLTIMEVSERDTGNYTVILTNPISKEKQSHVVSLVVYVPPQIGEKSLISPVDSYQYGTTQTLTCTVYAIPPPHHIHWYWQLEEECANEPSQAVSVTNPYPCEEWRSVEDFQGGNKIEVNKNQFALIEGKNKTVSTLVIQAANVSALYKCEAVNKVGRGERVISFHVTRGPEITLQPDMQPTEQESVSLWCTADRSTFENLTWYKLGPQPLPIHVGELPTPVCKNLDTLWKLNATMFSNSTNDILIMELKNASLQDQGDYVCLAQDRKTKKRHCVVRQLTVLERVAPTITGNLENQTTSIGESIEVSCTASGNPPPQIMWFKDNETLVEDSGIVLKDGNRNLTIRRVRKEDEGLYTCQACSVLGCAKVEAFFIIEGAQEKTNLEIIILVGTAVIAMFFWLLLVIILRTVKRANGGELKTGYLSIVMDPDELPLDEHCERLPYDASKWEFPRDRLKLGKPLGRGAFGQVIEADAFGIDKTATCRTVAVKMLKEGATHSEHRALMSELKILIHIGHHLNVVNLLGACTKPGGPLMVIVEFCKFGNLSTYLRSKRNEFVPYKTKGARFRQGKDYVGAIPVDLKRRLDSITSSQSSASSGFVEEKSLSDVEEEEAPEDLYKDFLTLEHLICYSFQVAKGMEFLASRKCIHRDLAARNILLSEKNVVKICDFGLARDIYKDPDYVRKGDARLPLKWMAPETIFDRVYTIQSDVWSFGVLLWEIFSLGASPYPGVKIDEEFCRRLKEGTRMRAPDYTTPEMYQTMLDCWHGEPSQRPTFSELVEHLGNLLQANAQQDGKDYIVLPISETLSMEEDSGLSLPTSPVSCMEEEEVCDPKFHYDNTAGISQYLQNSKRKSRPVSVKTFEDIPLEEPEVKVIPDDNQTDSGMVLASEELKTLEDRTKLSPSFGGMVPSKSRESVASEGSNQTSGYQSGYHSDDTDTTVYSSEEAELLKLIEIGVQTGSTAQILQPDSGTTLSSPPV

[13] = molecular target: T4, Alpha-1A adrenergic receptor (Homo sapiens) (UniProt P35348); conditions: Compound concentration 10.0 uM
T4 sequence (whole entry): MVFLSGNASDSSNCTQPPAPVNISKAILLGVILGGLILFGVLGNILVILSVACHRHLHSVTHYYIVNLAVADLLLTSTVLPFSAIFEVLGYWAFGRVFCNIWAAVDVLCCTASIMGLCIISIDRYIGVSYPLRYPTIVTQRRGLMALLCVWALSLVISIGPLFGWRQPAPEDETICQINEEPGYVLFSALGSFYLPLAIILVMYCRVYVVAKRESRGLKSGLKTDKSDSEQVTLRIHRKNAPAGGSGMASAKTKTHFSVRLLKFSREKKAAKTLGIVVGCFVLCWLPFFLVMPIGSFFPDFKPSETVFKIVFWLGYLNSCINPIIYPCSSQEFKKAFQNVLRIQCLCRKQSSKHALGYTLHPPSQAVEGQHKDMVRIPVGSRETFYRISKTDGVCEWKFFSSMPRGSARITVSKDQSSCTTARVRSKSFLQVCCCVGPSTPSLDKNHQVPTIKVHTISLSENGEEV

[14] = molecular target: Beta-2 adrenergic receptor (Homo sapiens) (UniProt P07550); conditions: Compound concentration 10.0 uM
Chain of Beta-2 adrenergic receptor (Homo sapiens) (P07550 whole entry, looked up): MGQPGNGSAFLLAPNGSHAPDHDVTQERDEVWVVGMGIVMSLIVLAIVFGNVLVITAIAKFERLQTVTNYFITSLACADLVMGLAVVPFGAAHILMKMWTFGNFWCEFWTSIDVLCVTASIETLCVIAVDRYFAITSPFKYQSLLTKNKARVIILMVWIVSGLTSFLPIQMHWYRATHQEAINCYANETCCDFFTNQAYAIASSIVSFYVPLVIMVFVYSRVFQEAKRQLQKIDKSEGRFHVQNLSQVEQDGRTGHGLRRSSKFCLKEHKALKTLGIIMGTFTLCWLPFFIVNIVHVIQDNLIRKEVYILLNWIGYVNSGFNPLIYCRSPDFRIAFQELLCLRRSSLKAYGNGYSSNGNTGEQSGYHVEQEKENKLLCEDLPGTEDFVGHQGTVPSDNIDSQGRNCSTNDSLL

CN(C)C(=O)Cn1cc(-c2nc(C3(c4ccc(-c5cnc(N)nc5)cc4)CC3)no2)cn1 [BI 0153]
inactive: residual activity [1] 100% | residual activity [2] 66% | residual activity [3] 81% | residual activity [4] 79% | residual activity [5] 69% | residual activity [6] 67% | residual activity [7] 81% | residual activity [8] 100% | residual activity [9] 100% | residual activity [10] 99% | residual activity [11] 96% | residual activity [12] 70% | inhibition [13] 13.9% | inhibition [14] 3.55%

CN(C)C(=O)Cn1cc(-c2nc([C@@](C)(c3ccc(-c4cnc(N)nc4)cc3)C3CC3)no2)cn1 [BI 665915]
inactive: residual activity [1] 83% | residual activity [2] 73% | residual activity [3] 89% | residual activity [4] 100% | residual activity [5] 86% | residual activity [6] 78% | residual activity [7] 86% | residual activity [8] 99% | residual activity [9] 96% | residual activity [10] 71% | residual activity [11] 100% | residual activity [12] 87% | inhibition [13] 4.68% | inhibition [14] 0.497%
